{"source": "patent US9914718B2", "about": "“Anhydrous crystalline form of S-equol” (Ausio Pharmaceuticals, LLC, priority 2014, dated 2018)", "experiment": "Long-term stability testing at room temperature storage conditions", "assay_type": "physicochemical", "protocol": "Stability testing: To access its ability to maintain a desired chemical integrity, the stability of anhydrous crystalline polymorph of S-equol was evaluated for a period representative of the shelf-life of a pharmaceutical formulation. Anhydrous crystalline polymorph of S-equol was maintained at room temperature storage conditions, and evaluated for purity and water content.", "data": [{"compound": "Oc1ccc([C@H]2COc3cc(O)ccc3C2)cc1", "note": "[anhydrous crystalline S-equol, S-equol]", "values": [{"measurement": "Appearance", "setting": "0 days", "value": "white to brown"}, {"measurement": "Purity", "setting": "0 days", "value": 100, "unit": "% HPLC area %"}, {"measurement": "Water Content", "setting": "0 days", "value": "<0.1", "unit": "g/100 g"}, {"measurement": "Appearance", "setting": "626 days", "value": "white to brown"}, {"measurement": "Purity", "setting": "626 days", "value": 100, "unit": "% HPLC area %"}, {"measurement": "Water Content", "setting": "626 days", "value": 0.05, "unit": "g/100 g"}, {"measurement": "Appearance", "setting": "867 days", "value": "white to brown"}, {"measurement": "Purity", "setting": "867 days", "value": 100, "unit": "% HPLC area %"}, {"measurement": "Water Content", "setting": "867 days", "value": 0.05, "unit": "g/100 g"}]}]}
